The source made the active and inactive calls. The rule behind the calls is not given here.
What was measured:
[1] = target: T1, Lysosomal Pro-X carboxypeptidase (Mus musculus, UniProt Q7TMR0); assay: Inhibition of PrCP in mouse plasma assessed as angiotensin 3 cleavage; format: cell-free
T1 sequence (Q7TMR0 whole entry): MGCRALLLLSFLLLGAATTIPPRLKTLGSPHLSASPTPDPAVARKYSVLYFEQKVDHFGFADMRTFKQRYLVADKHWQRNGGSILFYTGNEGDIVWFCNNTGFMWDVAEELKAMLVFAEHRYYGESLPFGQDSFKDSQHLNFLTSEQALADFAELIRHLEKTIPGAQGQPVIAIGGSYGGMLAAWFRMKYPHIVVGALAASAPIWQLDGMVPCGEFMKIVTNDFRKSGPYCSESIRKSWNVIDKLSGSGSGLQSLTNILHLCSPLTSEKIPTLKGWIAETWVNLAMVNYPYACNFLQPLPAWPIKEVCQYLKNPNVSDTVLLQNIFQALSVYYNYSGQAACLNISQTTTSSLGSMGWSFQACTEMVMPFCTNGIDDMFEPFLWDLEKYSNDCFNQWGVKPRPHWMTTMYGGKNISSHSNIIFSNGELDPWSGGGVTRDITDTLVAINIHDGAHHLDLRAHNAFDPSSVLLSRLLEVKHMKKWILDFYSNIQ

[2] = Oral bioavailability in mouse at 2 mg/kg; format: ADME, organism-based; details: in vivo
[3] = target: T1, Lysosomal Pro-X carboxypeptidase; assay: Inhibition of mouse PrCP
[4] = Clearance in mouse at 1 mg/kg, iv and 2 mg/kg, po; format: ADME, organism-based; details: in vivo
[5] = Volume of distribution at steady state in mouse at 1 mg/kg, iv and 2 mg/kg, po; format: ADME, organism-based; details: in vivo, read-out: Vdss
[6] = Half life in mouse at 1 mg/kg, iv and 2 mg/kg, po; format: ADME, organism-based; details: in vivo
[7] = Drug level in wild type CF1 mouse plasma at 0.5 mg/kg after 4 hrs; format: ADME, organism-based; set-up: dose 0.5 mg/kg; details: read-out: Drug uptake
[8] = system: Mus musculus; assay: Inhibition of ex vivo PrCP engagement in eDIO mouse plasma at 60 mg/kg, sc by continuous infusion pump for 7 days; format: functional; details: 168 h, route subcutaneous
[9] = system: Mus musculus; assay: Antiobesity activity in eDIO mouse assessed as reduction of food intake at 12 mg/kg sc by continuous infusion pump qd for 7 days; format: functional, organism-based; set-up: dose 12 mg/kg
[10] = organism: Mus musculus; details: Plasma, 30 mg/kg
Description: Inhibition of ex vivo PrCP engagement in eDIO mouse plasma at 30 mg/kg, sc by continuous infusion pump for 7 days

[11] = system: Mus musculus; assay: Antiobesity activity in eDIO mouse assessed as reduction of body weight at 12 mg/kg sc by continuous infusion pump qd for 7 days; format: functional, organism-based; set-up: dose 12 mg/kg
[12] = Drug level in wild type CF1 mouse brain at 0.5 mg/kg after 4 hrs; format: ADME, organism-based; set-up: dose 0.5 mg/kg; details: read-out: Drug uptake
[13] = Plasma concentration in eDIO mouse at 12 mg/kg sc by continuous infusion pump qd for 7 days; format: ADME, organism-based; set-up: dose 12 mg/kg, route subcutaneous
[14] = Ratio of drug level in brain to plasma in wild type CF1 mouse at 0.5 mg/kg after 0.5 hrs; format: ADME, organism-based; set-up: dose 0.5 mg/kg; details: read-out: BPR
[15] = Plasma concentration in PrCP knockout mouse at 12 mg/kg sc by continuous infusion pump qd for 7 days; format: ADME, organism-based; set-up: dose 12 mg/kg, route subcutaneous
[16] = Drug level in wild type CF1 mouse plasma at 0.5 mg/kg after 0.5 hrs; format: ADME, organism-based; set-up: dose 0.5 mg/kg; details: read-out: Drug uptake
[17] = Ratio of drug level in brain to plasma in mdr1a deficient mouse at 0.5 mg/kg after 4 hrs; format: ADME, organism-based; set-up: dose 0.5 mg/kg; details: read-out: BPR
[18] = Ratio of drug level in brain to plasma in mdr1a deficient mouse at 0.5 mg/kg after 0.5 hrs; format: ADME, organism-based; set-up: dose 0.5 mg/kg; details: read-out: BPR
[19] = Drug level in mdr1a deficient mouse plasma at 0.5 mg/kg after 0.5 hrs; format: ADME, organism-based; set-up: dose 0.5 mg/kg; details: read-out: Drug uptake
[20] = Drug level in mdr1a deficient mouse brain at 0.5 mg/kg after 4 hrs; format: ADME, organism-based; set-up: dose 0.5 mg/kg; details: read-out: Drug uptake
[21] = system: Mus musculus; assay: Inhibition of ex vivo PrCP engagement in eDIO mouse plasma at 60 mg/kg, sc by continuous infusion pump for 7 days additionally treated 2 uM of compound; format: functional; details: 168 h, route subcutaneous
[22] = system: Mus musculus; assay: Antiobesity activity in PrCP knockout mouse assessed as reduction of food intake at 12 mg/kg sc by continuous infusion pump qd for 7 days; format: functional, organism-based; set-up: dose 12 mg/kg
[23] = system: Mus musculus; assay: Antiobesity activity in PrCP knockout mouse assessed as reduction of body weight at 12 mg/kg sc by continuous infusion pump qd for 7 days; format: functional, organism-based; set-up: dose 12 mg/kg
[24] = organism: Mus musculus; details: Plasma, 10 mg/kg
Description: Inhibition of ex vivo PrCP engagement in eDIO mouse plasma at 10 mg/kg, sc by continuous infusion pump for 7 days

[25] = Drug level in mdr1a deficient mouse brain at 0.5 mg/kg after 0.5 hrs; format: ADME, organism-based; set-up: dose 0.5 mg/kg; details: read-out: Drug uptake
[26] = Drug level in wild type CF1 mouse brain at 0.5 mg/kg after 0.5 hrs; format: ADME, organism-based; set-up: dose 0.5 mg/kg; details: read-out: Drug uptake
[27] = Drug level in mdr1a deficient mouse plasma at 0.5 mg/kg after 4 hrs; format: ADME, organism-based; set-up: dose 0.5 mg/kg; details: read-out: Drug uptake
[28] = Plasma concentration in eDIO mouse at 10 to 60 mg/kg, sc by continuous infusion pump for 7 days; format: ADME, organism-based; set-up: dose 10-60 mg/kg, route subcutaneous
[29] = Ratio of drug level in brain to plasma in wild type CF1 mouse at 0.5 mg/kg after 4 hrs; format: ADME, organism-based; set-up: dose 0.5 mg/kg; details: read-out: BPR
[30] = target: T2, Lysosomal Pro-X carboxypeptidase (Homo sapiens) (UniProt P42785); assay: Inhibition of human PrCP at 5 uM
T2 sequence (whole entry): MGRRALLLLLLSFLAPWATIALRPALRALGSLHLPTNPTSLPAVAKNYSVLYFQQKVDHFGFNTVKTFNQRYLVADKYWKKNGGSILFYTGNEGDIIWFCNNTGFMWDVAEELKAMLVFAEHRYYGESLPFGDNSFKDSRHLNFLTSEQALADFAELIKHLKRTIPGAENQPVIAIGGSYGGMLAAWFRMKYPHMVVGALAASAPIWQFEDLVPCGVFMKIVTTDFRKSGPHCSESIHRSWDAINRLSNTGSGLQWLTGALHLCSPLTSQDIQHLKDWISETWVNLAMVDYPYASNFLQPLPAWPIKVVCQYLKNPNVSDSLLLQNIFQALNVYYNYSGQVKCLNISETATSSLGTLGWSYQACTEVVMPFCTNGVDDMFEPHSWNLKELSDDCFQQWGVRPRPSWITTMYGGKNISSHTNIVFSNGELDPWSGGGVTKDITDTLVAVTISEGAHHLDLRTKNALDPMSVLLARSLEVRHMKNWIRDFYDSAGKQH

CC(C)(CCCC(=O)N1CCC[C@H]1c1nc2cc(Cl)c(Cl)cc2[nH]1)N1CCC(c2nc(-c3ccccn3)no2)CC1
IC50 [1]: 113 nM
bioavailability [2]: 3%
IC50 [3]: 19 nM
clearance [4]: 60 mL/min/kg
Vd [5]: 12 L/kg
half-life [6]: 3.1 h

O=C(CCN1CCC(c2ccncc2)CC1)N1CCC[C@H]1c1nc2cc(Cl)c(Cl)cc2[nH]1
IC50 [1]: 430 nM

O=C(CCN1CCC(c2cnccn2)CC1)N1CCC[C@H]1c1nc2cc(Cl)c(Cl)cc2[nH]1
IC50 [1]: 8000 nM

CS(=O)(=O)c1ccc(-c2noc(C3CCN(CCC(=O)N4CCC[C@H]4c4nc5cc(Cl)c(Cl)cc5[nH]4)CC3)n2)cc1
IC50 [1]: 10 nM
bioavailability [2]: 14%
IC50 [3]: 0.41 nM
clearance [4]: 54 mL/min/kg
Vd [5]: 7.7 L/kg
half-life [6]: 2.2 h

CS(=O)(=O)c1ccc(-c2noc(C3CCN(CCC(=O)N4CCC[C@H]4c4nc5cc(Cl)c(Cl)cc5[nH]4)C(=O)C3)n2)cc1 (stereo partly drawn)
IC50 [1]: 425 nM
bioavailability [2]: 3%
clearance [4]: 115 mL/min/kg
Vd [5]: 3 L/kg
half-life [6]: 1.3 h

O=C(CCN1CCC(c2cc(-c3ccncc3)[nH]n2)CC1)N1CCC[C@H]1c1nc2cc(Cl)c(Cl)cc2[nH]1
IC50 [1]: 485 nM

O=C(CCN1CCC(c2nc(-c3cnccn3)no2)CC1)N1CCC[C@H]1c1nc2cc(Cl)c(Cl)cc2[nH]1
IC50 [1]: 435 nM

O=C(CCN1CCN(c2ccccc2)CC1)N1CCC[C@H]1c1nc2cc(Cl)c(Cl)cc2[nH]1
IC50 [1]: > 10000 nM

O=C(CCN1CCC(c2cn[nH]c2)CC1)N1CCC[C@H]1c1nc2cc(Cl)c(Cl)cc2[nH]1
IC50 [3]: 107 nM

O=C(CCN1CCC(n2ncnn2)CC1)N1CCC[C@H]1c1nc2cc(Cl)c(Cl)cc2[nH]1
IC50 [1]: 2900 nM

O=C(CCN1CCC(c2nc(-c3ccncc3)no2)CC1)N1CCC[C@H]1c1nc2cc(Cl)c(Cl)cc2[nH]1
IC50 [1]: 29 nM
bioavailability [2]: 8%
IC50 [3]: 0.53 nM
clearance [4]: 38 mL/min/kg
Vd [5]: 5.7 L/kg
half-life [6]: 4.9 h

O=C(CCN1CCC(c2cc[nH]n2)CC1)N1CCC[C@H]1c1nc2cc(Cl)c(Cl)cc2[nH]1
IC50 [1]: 290 nM

Cn1nc(C2CCN(CCC(=O)N3CCC[C@H]3c3nc4cc(Cl)c(Cl)cc4[nH]3)CC2)cc1-c1cccnc1
IC50 [1]: 39 nM

O=C(CCN1CCC(c2nc(-c3ncccn3)no2)CC1)N1CCC[C@H]1c1nc2cc(Cl)c(Cl)cc2[nH]1
IC50 [1]: 745 nM

O=C(CCN1CCC(c2nc(-c3cccnc3)no2)CC1)N1CCC[C@H]1c1nc2cc(Cl)c(Cl)cc2[nH]1
IC50 [1]: 155 nM

Cn1nc(C2CCN(CCC(=O)N3CCC[C@H]3c3nc4cc(Cl)c(Cl)cc4[nH]3)CC2)cc1-c1ccncc1
IC50 [1]: 6.7 nM
concentration at 4 h [7]: 4.6 nM
bioavailability [2]: 4%
inhibition in vivo at 60 mg/kg [8]: 55%
Activity [9]: Active
IC50 [3]: 0.8 nM
inhibition [10]: Active
Activity [11]: Active
concentration at 4 h [12]: 4 nM
concentration at 168 h [13]: 210 nM
Kp at 0.5 h [14]: 0.2
clearance [4]: 65 mL/min/kg
concentration at 168 h [15]: 290 nM
concentration at 0.5 h [16]: 54 nM
Kp at 4 h [17]: 13
Vd [5]: 9.4 L/kg
Kp at 0.5 h [18]: 1.4
concentration at 0.5 h [19]: 51 nM
concentration at 4 h [20]: 54 nM
inhibition in vivo at 60 mg/kg [21]: 80%
half-life [6]: 4.1 h
Activity [22]: Active
Activity [23]: Active
inhibition [24]: Active
concentration at 0.5 h [25]: 70 nM
concentration at 0.5 h [26]: 10 nM
concentration at 4 h [27]: 4 nM
concentration at 168 h [28]: 90 nM
Kp at 4 h [29]: 0.88

O=C(CCN1CCC(c2nc(-c3ccccn3)no2)CC1)N1CCC[C@H]1c1nc2cc(Cl)c(Cl)cc2[nH]1
IC50 [1]: 173 nM
IC50 [3]: 3.5 nM

O=C(CCN1CCC(c2ccccc2)CC1)N1CCC[C@H]1c1nc2cc(Cl)c(Cl)cc2[nH]1
IC50 [1]: > 10000 nM

O=C(CCN1CCC(c2ccccc2)C1)N1CCC[C@H]1c1nc2cc(Cl)c(Cl)cc2[nH]1 (stereo partly drawn)
inhibition [30]: 93%

O=C(O)c1ccc(-c2noc(C3CCN(CCC(=O)N4CCC[C@H]4c4nc5cc(Cl)c(Cl)cc5[nH]4)CC3)n2)cc1
IC50 [1]: 241 nM

From ChEMBL document CHEMBL1681696, “Discovery of benzimidazole pyrrolidinyl amides as prolylcarboxypeptidase inhibitors” (Bioorg Med Chem Lett, 2011)
